Measurements published in the NIST ThermoML archive (doi:10.1016/j.jct.2019.06.005).
± gives the expanded uncertainty stated by the source.

Assay: xn = mol fraction of the nth substance listed
Conditions: for surface tension liquid-gas: Maximal bubble pressure; for mass density: 100 kPa, Liquid, Vibrating tube method

COCC[n+]1ccn(C)c1.O=S(=O)([N-]S(=O)(=O)C(F)(F)F)C(F)(F)F + CO
Conditions | mass density [kg/m3] | surface tension liquid-gas [mN/m]
288.15 K, x1 = 0.1004 | 1121.11 ± 7.1 | 26.6 ± 2.7
288.15 K, x1 = 0.2003 | 1263.18 ± 8 | 28.5 ± 2.9
288.15 K, x1 = 0.2814 | 1330.61 ± 8.3 | 29.6 ± 3
288.15 K, x1 = 0.4004 | 1394.19 ± 8.7 | 31.5 ± 3.2
288.15 K, x1 = 0.4987 | 1429.08 ± 8.9 | 33.1 ± 3.3
288.15 K, x1 = 0.5949 | 1454.46 ± 9 | 34.8 ± 3.5
288.15 K, x1 = 0.704 | 1476.43 ± 9.2 | 36.9 ± 3.7
288.15 K, x1 = 0.8042 | 1492.31 ± 9.3 | 38.6 ± 3.9
288.15 K, x1 = 0.9003 | 1504.71 ± 9.3 | 40.1 ± 4
288.15 K, x1 = 1 | 1515.3 ± 9.4 | 41.4 ± 4.2
293.15 K, x1 = 0.1004 | 1116 ± 7.1 | 26.2 ± 2.6
293.15 K, x1 = 0.2003 | 1257.97 ± 7.9 | 28.1 ± 2.8
293.15 K, x1 = 0.2814 | 1325.38 ± 8.3 | 29.3 ± 2.9
293.15 K, x1 = 0.4004 | 1388.96 ± 8.7 | 31.1 ± 3.1
293.15 K, x1 = 0.4987 | 1423.86 ± 8.9 | 32.8 ± 3.3
293.15 K, x1 = 0.5949 | 1449.25 ± 9 | 34.5 ± 3.5
293.15 K, x1 = 0.704 | 1471.24 ± 9.1 | 36.6 ± 3.7
293.15 K, x1 = 0.8042 | 1487.14 ± 9.2 | 38.3 ± 3.8
293.15 K, x1 = 0.9003 | 1499.56 ± 9.3 | 39.8 ± 4
293.15 K, x1 = 1 | 1510.15 ± 9.4 | 41.2 ± 4.1
298.15 K, x1 = 0.1004 | 1110.88 ± 7 | 25.7 ± 2.6
298.15 K, x1 = 0.2003 | 1252.76 ± 7.9 | 27.7 ± 2.8
298.15 K, x1 = 0.2814 | 1320.14 ± 8.3 | 28.9 ± 2.9
298.15 K, x1 = 0.4004 | 1383.74 ± 8.7 | 30.8 ± 3.1
298.15 K, x1 = 0.4987 | 1418.64 ± 8.8 | 32.5 ± 3.3
298.15 K, x1 = 0.5949 | 1444.06 ± 9 | 34.2 ± 3.4
298.15 K, x1 = 0.704 | 1466.08 ± 9.1 | 36.4 ± 3.6
298.15 K, x1 = 0.8042 | 1481.99 ± 9.2 | 38.1 ± 3.8
298.15 K, x1 = 0.9003 | 1494.42 ± 9.3 | 39.6 ± 4
298.15 K, x1 = 1 | 1505.03 ± 9.4 | 41 ± 4.1
303.15 K, x1 = 0.1004 | 1105.74 ± 7 | 25.2 ± 2.5
303.15 K, x1 = 0.2003 | 1247.54 ± 7.9 | 27.3 ± 2.7
303.15 K, x1 = 0.2814 | 1314.92 ± 8.2 | 28.6 ± 2.9
303.15 K, x1 = 0.4004 | 1378.52 ± 8.6 | 30.5 ± 3.1
303.15 K, x1 = 0.4987 | 1413.44 ± 8.8 | 32.2 ± 3.2
303.15 K, x1 = 0.5949 | 1438.88 ± 8.9 | 34 ± 3.4
303.15 K, x1 = 0.704 | 1460.92 ± 9.1 | 36.1 ± 3.6
303.15 K, x1 = 0.8042 | 1476.85 ± 9.2 | 37.8 ± 3.8
303.15 K, x1 = 0.9003 | 1489.3 ± 9.2 | 39.4 ± 4
303.15 K, x1 = 1 | 1499.92 ± 9.3 | 40.7 ± 4.1
308.15 K, x1 = 0.1004 | 1100.6 ± 7 | 24.6 ± 2.5
308.15 K, x1 = 0.2003 | 1242.33 ± 7.8 | 26.9 ± 2.7
308.15 K, x1 = 0.2814 | 1309.69 ± 8.2 | 28.2 ± 2.8
308.15 K, x1 = 0.4004 | 1373.31 ± 8.6 | 30.1 ± 3
308.15 K, x1 = 0.4987 | 1408.26 ± 8.8 | 31.9 ± 3.2
308.15 K, x1 = 0.5949 | 1433.72 ± 8.9 | 33.7 ± 3.4
308.15 K, x1 = 0.704 | 1455.77 ± 9 | 35.8 ± 3.6
308.15 K, x1 = 0.8042 | 1471.73 ± 9.1 | 37.6 ± 3.8
308.15 K, x1 = 0.9003 | 1484.2 ± 9.2 | 39.1 ± 3.9
308.15 K, x1 = 1 | 1494.83 ± 9.3 | 40.5 ± 4.1
313.15 K, x1 = 0.1004 | 1095.44 ± 6.9 | 24.2 ± 2.4
313.15 K, x1 = 0.2003 | 1237.11 ± 7.8 | 26.5 ± 2.7
313.15 K, x1 = 0.2814 | 1304.47 ± 8.2 | 27.8 ± 2.8
313.15 K, x1 = 0.4004 | 1368.12 ± 8.6 | 29.9 ± 3
313.15 K, x1 = 0.4987 | 1403.08 ± 8.8 | 31.6 ± 3.2
313.15 K, x1 = 0.5949 | 1428.57 ± 8.9 | 33.4 ± 3.3
313.15 K, x1 = 0.704 | 1450.64 ± 9 | 35.6 ± 3.6
313.15 K, x1 = 0.8042 | 1466.63 ± 9.1 | 37.4 ± 3.8
313.15 K, x1 = 0.9003 | 1479.12 ± 9.2 | 38.9 ± 3.9
313.15 K, x1 = 1 | 1489.77 ± 9.3 | 40.3 ± 4
318.15 K, x1 = 0.1004 | 1090.28 ± 6.9 | 23.8 ± 2.4
318.15 K, x1 = 0.2003 | 1231.89 ± 7.8 | 26.1 ± 2.6
318.15 K, x1 = 0.2814 | 1299.25 ± 8.1 | 27.5 ± 2.8
318.15 K, x1 = 0.4004 | 1362.93 ± 8.5 | 29.6 ± 3
318.15 K, x1 = 0.4987 | 1397.92 ± 8.7 | 31.4 ± 3.1
318.15 K, x1 = 0.5949 | 1423.44 ± 8.8 | 33.2 ± 3.3
318.15 K, x1 = 0.704 | 1445.47 ± 9 | 35.4 ± 3.5
318.15 K, x1 = 0.8042 | 1461.52 ± 9.1 | 37.1 ± 3.7
318.15 K, x1 = 0.9003 | 1474.06 ± 9.2 | 38.7 ± 3.9
318.15 K, x1 = 1 | 1484.72 ± 9.2 | 40.1 ± 4
